# In PMC6602942, “Vertebrates originally possess four functional subtypes of G protein-coupled melatonin receptor” (Scientific Reports, 2019):
# Where “and” joins values, the source holds several entries; their conditions need not be identical. Equal entries are not always repeated. Where two headings read alike, the source gives them in different places.
# Assays:
# medaka MTNR1a [1] = molecular target: T1, medaka MTNR1a (Oryzias latipes, UniProt H2LVT7); experiment: cAMP-responsive (CRE-luc) reporter gene assay, agonist mode; type: cell-based; conditions: for RAA (%) MTNR1a (relative agonistic activity): maximal activity as percentage of that of melatonin; for agonistic activity in medaka MTNR1a: reporter assay without melatonin
# T1 sequence (H2LVT7 1-347): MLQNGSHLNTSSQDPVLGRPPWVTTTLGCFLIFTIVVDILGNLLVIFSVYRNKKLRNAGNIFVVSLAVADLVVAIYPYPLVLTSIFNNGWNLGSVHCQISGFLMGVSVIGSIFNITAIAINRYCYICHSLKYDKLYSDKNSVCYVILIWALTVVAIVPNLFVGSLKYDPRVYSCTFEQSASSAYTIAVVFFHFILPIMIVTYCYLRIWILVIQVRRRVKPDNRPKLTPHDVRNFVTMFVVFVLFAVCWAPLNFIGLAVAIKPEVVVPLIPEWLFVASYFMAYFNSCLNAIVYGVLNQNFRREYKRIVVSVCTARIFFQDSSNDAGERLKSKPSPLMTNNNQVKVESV
# Excerpt: (§1) Expression vectors for medaka mtnr genes, (pcDNA-OlMTNR1a, pcDNA-OlMTNR1b, pcDNA-OlMTNR1c and pcDNA-OlMTNR1a-like) were constructed by PCR amplification of the entire protein coding region, using primers which introduced in-frame Kozak sequence[33] at the 5′ end. A cyclic adenosine monophosphate (cAMP)-regulated reporter vector containing the luciferase gene under the control of a cAMP response element upstream of the TATA-like promoter region from the herpes simplex virus thymidine kinase promoter, named pCRE-luc, originated from the Pathway Profiling Luciferase System (Clontech). Hepa-E1 cells, i.e. epithelial-like Nile tilapia hepatocytes, were obtained from the Institute of Physical and Chemical Research (RIKEN) cell bank (Tsukuba, Japan). For MTNR1a, MTNR1b and MTNR1d, stable transfections were performed as described below. Hepa-E1 cells were seeded in 9 cm dishes prior to transfection. Both plasmids, pCRE-luc as well as expression vectors for medaka mtnrs were linearized by […] and transfected with X-tremeGENE 9 (Roche) according to the manufacturer’s instructions. Stably transfected cells were selected with G418. After selection, each colony was collected by pipetting. Sensitivity for cAMP in each clone was tested by forskolin treatment after seeding into 96-well plates with E-RDF medium (Kyokuto, Tokyo, Japan) and supplemented with 5% dextran-charcoal treated fetal bovine serum. After 24 h the cells were collected, and cellular luciferase activities were measured by luminescence assay with the Steady-Glo Assay System Kit (Promega) according to the manufacturer’s instructions. Forskolin-sensitive cell lines derived from co-transfection of pCRE-luc and pcDNA3.1(+) were developed as control lines and named null-CRE-luc. Forskolin-sensitive cell lines derived from co-transfection of pCRE-luc and each pcDNA-OlMTNR1 were selected for by sensitivity for melatonin.
# (§2) For MTNR1c, transient transfection was performed as outlined below. The MTNR1c experiment was performed using Hepa-E1 cells in 9 cm dishes, which were transiently transfected by pcDNA-OlMTNR1c (500 ng) and pCRE-luc (5000 ng) by TransIT-X2 Dynamic Delivery System (Mirus) and incubated 24 h before seeding, following the manufacturer’s instructions. Cells derived from a chosen clone or MRNR1c-tranfected cells were seeded at 10^4 cells per well in 96-well luminometer plates. Then, cells were treated with test chemicals in triplicate at four-fold serial dilutions in the presence or absence of melatonin with 6.25 × 10^−7 M forskolin. For testing the antagonistic effect, reagents were mixed with melatonin at 90% effective concentration (EC90). Negative control wells were dosed with media plus 0.1% ethanol. Positive control wells were dosed with 1 μM melatonin. After 24 h, luciferase activities were measured as described above. Concentration-response curves were fitted and the EC50 or IC50 were calculated using sigmoidal fit in GraphPad Prism5. The relative agonistic activity (RAA) of each reagent was expressed as a percentage of the maximal activity for the reporter induction to that of melatonin. The antagonistic index (AI) of each reagent was expressed as a percentage of the maximal inhibition of the reagent. Maximal inhibition was calculated as the quotient of the subtraction of the luminescence for melatonin from the maximal luminescence for the reagent divided by the maximal inhibition of melatonin. When the reagent inhibits the transactivity to the same level of that of the vehicle control (forskolin), the AI equals 100%.
# [2] = molecular target: T2, medaka MTNR1a-like (MTNR1d) (Oryzias latipes, UniProt A0A3B3HMP3); experiment: as above; type: cell-based; conditions: for agonistic activity in medaka MTNR1d: reporter assay without melatonin; for Emax: read-out: RAA (%) MTNR1a-like (relative agonistic activity)
# T2 sequence (A0A3B3HMP3 1-354): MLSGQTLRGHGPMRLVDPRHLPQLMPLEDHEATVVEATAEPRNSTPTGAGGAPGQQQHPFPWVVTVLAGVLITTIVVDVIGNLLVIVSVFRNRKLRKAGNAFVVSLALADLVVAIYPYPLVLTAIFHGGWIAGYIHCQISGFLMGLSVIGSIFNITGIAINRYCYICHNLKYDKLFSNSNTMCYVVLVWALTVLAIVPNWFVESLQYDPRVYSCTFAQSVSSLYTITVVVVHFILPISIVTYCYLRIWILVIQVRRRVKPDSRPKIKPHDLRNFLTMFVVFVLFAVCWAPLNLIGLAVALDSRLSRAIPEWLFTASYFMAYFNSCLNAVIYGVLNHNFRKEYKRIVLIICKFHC
# Excerpt: as §1, §2
# medaka MTNR1b [3] = molecular target: T3, medaka MTNR1b (Oryzias latipes, UniProt A0ACM8R453); experiment: as above; type: cell-based; conditions: for RAA (%) MTNR1b (relative agonistic activity): maximal activity as percentage of that of melatonin, Hepa-E1 cells, forskolin, ND: not detected
# T3 sequence (A0ACM8R453 1-364): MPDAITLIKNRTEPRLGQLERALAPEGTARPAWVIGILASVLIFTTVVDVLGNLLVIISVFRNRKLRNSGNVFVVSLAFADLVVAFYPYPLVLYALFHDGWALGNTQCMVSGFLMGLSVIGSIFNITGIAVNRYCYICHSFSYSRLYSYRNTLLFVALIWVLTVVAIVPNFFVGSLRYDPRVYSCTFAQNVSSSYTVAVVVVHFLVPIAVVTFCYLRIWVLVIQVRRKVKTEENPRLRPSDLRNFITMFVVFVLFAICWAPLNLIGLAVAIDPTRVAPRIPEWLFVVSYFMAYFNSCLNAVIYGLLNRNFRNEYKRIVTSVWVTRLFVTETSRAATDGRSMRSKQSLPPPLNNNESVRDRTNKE
# Excerpt: as §1, §2
# medaka MTNR1c [4] = molecular target: T4, medaka MTNR1c (Oryzias latipes, UniProt A0A0D6A8H7); experiment: as above; type: cell-based; conditions: for RAA (%) MTNR1c (relative agonistic activity) / Emax: maximal activity as percentage of that of melatonin, Hepa-E1 cells, forskolin, ND: not detected; for Emax: read-out: RAA (%) MTNR1c (relative agonistic activity)
# T4 sequence (A0A0D6A8H7 entry or part of it): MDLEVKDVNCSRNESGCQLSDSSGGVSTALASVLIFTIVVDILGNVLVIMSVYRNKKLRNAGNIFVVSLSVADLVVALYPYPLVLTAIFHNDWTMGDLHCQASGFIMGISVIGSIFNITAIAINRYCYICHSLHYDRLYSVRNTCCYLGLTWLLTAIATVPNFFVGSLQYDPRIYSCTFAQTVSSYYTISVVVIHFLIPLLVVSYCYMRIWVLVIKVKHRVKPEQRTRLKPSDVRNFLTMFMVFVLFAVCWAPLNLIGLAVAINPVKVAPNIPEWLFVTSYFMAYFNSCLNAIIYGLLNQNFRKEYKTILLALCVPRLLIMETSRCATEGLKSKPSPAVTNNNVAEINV
# Excerpt: as §1, §2
# medaka MTNR1b [5] = molecular target: T3, medaka MTNR1b; experiment: cAMP-responsive (CRE-luc) reporter gene assay, antagonist mode with EC90 melatonin; type: cell-based; conditions: for AI (%) MTNR1b (antagonistic index): maximal inhibition of melatonin (EC90) effect, 100% = forskolin level, ND: not detected
# Excerpt: as §1
# (§3) For MTNR1c, transient transfection was performed as outlined below. […] After 24 h, luciferase activities were measured as described above. Concentration-response curves were fitted and the EC50 or IC50 were calculated using sigmoidal fit in GraphPad Prism5. The relative agonistic activity (RAA) of each reagent was expressed as a percentage of the maximal activity for the reporter induction to that of melatonin. The antagonistic index (AI) of each reagent was expressed as a percentage of the maximal inhibition of the reagent. Maximal inhibition was calculated as the quotient of the subtraction of the luminescence for melatonin from the maximal luminescence for the reagent divided by the maximal inhibition of melatonin. […]
# medaka MTNR1c [6] = molecular target: T4, medaka MTNR1c; experiment: as above; type: cell-based; conditions: maximal inhibition of melatonin (EC90) effect; 100% = forskolin level; ND: not detected
# Excerpt: as §1, §3
# medaka MTNR1a [7] = molecular target: T1, medaka MTNR1a; conditions: maximal inhibition of melatonin (EC90) effect; 100% = forskolin level; ND: not detected
# Method: (§4) Hepa-E1 cells were seeded in 9 cm dishes prior to transfection. Both plasmids, pCRE-luc as well as expression vectors for medaka mtnrs were linearized by PCR and transfected with X-tremeGENE 9 (Roche) according to the manufacturer’s instructions. Stably transfected cells were selected with G418. After selection, each colony was collected by pipetting. Sensitivity for cAMP in each clone was tested by forskolin treatment after seeding into 96-well plates with E-RDF medium (Kyokuto, Tokyo, Japan) and supplemented with 5% dextran-charcoal treated fetal bovine serum. After 24 h the cells were collected, and cellular luciferase activities were measured by luminescence assay with the Steady-Glo Assay System Kit (Promega) according to the manufacturer’s instructions. […]
# (§5) Cells derived from a chosen clone or MRNR1c-tranfected cells were seeded at 10^4 cells per well in 96-well luminometer plates. […] After 24 h, luciferase activities were measured as described above. Concentration-response curves were fitted and the EC50 or IC50 were calculated using sigmoidal fit in GraphPad Prism5. […] The antagonistic index (AI) of each reagent was expressed as a percentage of the maximal inhibition of the reagent. Maximal inhibition was calculated as the quotient of the subtraction of the luminescence for melatonin from the maximal luminescence for the reagent divided by the maximal inhibition of melatonin. […]
# [8] = molecular target: T2, medaka MTNR1a-like (MTNR1d); conditions: maximal inhibition of melatonin (EC90) effect; 100% = forskolin level; ND: not detected
# Method: as §4, §5
# [9] = stably transfected Hepa-E1 cells, 6.25 × 10^−7 M forskolin, 24 h, NC: not calculable (low activity, curve did not reach maximum), read-out: Potency (M) MTNR1a
# [10] = maximal activity as percentage of that of melatonin, Hepa-E1 cells, forskolin, 24 h, ND: not detected
# [11] = stably transfected Hepa-E1 cells, 6.25 × 10^−7 M forskolin, 24 h, NC: not calculable (low activity, curve did not reach maximum), read-out: Potency (M) MTNR1a-like
# [12] = 24 h, listed as 2-Iodomelatonin
compound,measurement,setting,value
"COc1ccc2[nH]c(I)c(CCNC(C)=O)c2c1 [2-Iodo melatonin, 2-Iodomelatonin]",RAA (%) MTNR1a (relative agonistic activity),"medaka MTNR1a [1]; Hepa-E1 cells, forskolin, 24 h, ND: not detected",95.8 ± 6.9%
same,RAA (%) MTNR1a (relative agonistic activity),"medaka MTNR1a [1]; Hepa-E1 cells, forskolin, 24 h, ND: not detected, listed as 2-Iodomelatonin",less than 100%
same,EC50,medaka MTNR1a [1]; [9],2.7e-11 M
same,RAA (%) MTNR1a-like (relative agonistic activity),[2]; [10],69.3 ± 6.8%
same,RAA (%) MTNR1a-like (relative agonistic activity),"[2]; maximal activity as percentage of that of melatonin, Hepa-E1 cells, forskolin, 24 h, ND: not detected, listed as 2-Iodomelatonin",69.3%
same,EC50,[2]; [11],4e-10 M
same,RAA (%) MTNR1b (relative agonistic activity),medaka MTNR1b [3]; 24 h,101.4 ± 2.8%
same,RAA (%) MTNR1b (relative agonistic activity),medaka MTNR1b [3]; [12],equivalent to that of melatonin
same,EC50,"medaka MTNR1b [3]; stably transfected Hepa-E1 cells, 6.25 × 10^−7 M forskolin, 24 h, NC: not calculable (low activity, curve did not reach maximum), read-out: Potency (M) MTNR1b",3.9e-11 M
same,RAA (%) MTNR1c (relative agonistic activity),medaka MTNR1c [4]; 24 h,111.8 ± 3.2%
same,RAA (%) MTNR1c (relative agonistic activity),medaka MTNR1c [4]; [12],112%
same,EC50,"medaka MTNR1c [4]; transiently transfected Hepa-E1 cells, 6.25 × 10^−7 M forskolin, 24 h, NC: not calculable (low activity, curve did not reach maximum), read-out: Potency (M) MTNR1c",1.3e-11 M
CCC(=O)NC1Cc2ccccc2C(c2ccccc2)C1 (stereo not shown) [4P-PDOT],agonistic activity in medaka MTNR1a,medaka MTNR1a [1],exhibited agonistic activity
same,EC50,medaka MTNR1a [1]; [9],4.7e-09 M
same,RAA (%) MTNR1a-like (relative agonistic activity),[2]; [10],68.7% and 68.7 ± 6.4%
same,agonistic activity in medaka MTNR1d,[2],exhibited agonistic activity
same,EC50,[2]; [11],1.2e-07 M
same,agonistic effect on MTNR1c,medaka MTNR1c [4]; reporter assay without melatonin,no agonistic effects
same,AI (%) MTNR1b (antagonistic index),medaka MTNR1b [5],68.3% and 68.3 ± 8.0%
same,IC50,"medaka MTNR1b [5]; with EC90 melatonin and forskolin, Hepa-E1 cells, 24 h, NC: not calculable, read-out: Potency (M) MTNR1b, antagonist",1.9e-07 M
CC(=O)NCCc1c(Cc2ccccc2)[nH]c2ccccc12 [Luzindole],RAA (%) MTNR1a (relative agonistic activity),"medaka MTNR1a [1]; Hepa-E1 cells, forskolin, 24 h, ND: not detected, 1440 min",68.2 ± 3.8%
same,RAA (%) MTNR1a (relative agonistic activity),"medaka MTNR1a [1]; Hepa-E1 cells, forskolin, 24 h, ND: not detected, listed as luzindole, 1440 min",less than 100%
same,agonistic activity in medaka MTNR1a,medaka MTNR1a [1],exhibited agonistic activity
same,EC50,medaka MTNR1a [1]; [9],3.3e-07 M
same,EC50,"[2]; MTNR1d (MTNR1a-like) transfected Hepa-E1 cells, cAMP-responsive reporter, read-out: EC50 MTNR1d",> 1e-06 M
same,Emax,[2]; [10],83.1%
same,agonistic activity in medaka MTNR1d,[2],exhibited agonistic activity
same,Emax,"medaka MTNR1c [4]; 24 h, 24 h",118%
same,EC50,"medaka MTNR1c [4]; MTNR1c-transfected Hepa-E1 cells, cAMP-responsive reporter, read-out: EC50 MTNR1c",> 1e-06 M
same,RAA (%) MTNR1c (relative agonistic activity),"medaka MTNR1c [4]; 24 h, 1440 min",117.6 ± 11.5%
same,AI (%) MTNR1b (antagonistic index),medaka MTNR1b [5],did not exhibit inhibition
same,AI (%) MTNR1c (antagonistic index),medaka MTNR1c [6],did not exhibit inhibition
same,AI (%) MTNR1a (antagonistic index),medaka MTNR1a [7],did not exhibit inhibition
same,AI (%) MTNR1a-like (antagonistic index),[8],did not exhibit inhibition
"COc1ccc2[nH]cc(CCNC(C)=O)c2c1 [Melatonin, N-acetyl-5-methoxytryptamine]",EC50,medaka MTNR1a [1],4.8e-10 M
same,Emax,"medaka MTNR1a [1]; 24 h, read-out: RAA (%) MTNR1a (relative agonistic activity), maximal activity as percentage of that of melatonin, Hepa-E1 cells, forskolin, 24 h, ND: not detected",100 ± 3.8%
same,EC50,[2],2.2e-08 M
same,Emax,[2]; 24 h,100 ± 2.9%
same,EC50,medaka MTNR1b [3],1.9e-09 M
same,Emax,"medaka MTNR1b [3]; 24 h, read-out: RAA (%) MTNR1b (relative agonistic activity)",100 ± 4.4%
same,EC50,medaka MTNR1c [4],6.2e-11 M
same,Emax,"medaka MTNR1c [4]; 24 h, 24 h",100 ± 1.8%
same,potency for melatonin of MTNR1c compared with MTNR1d/MTNR1a-like,medaka MTNR1c [4]; ratio of potencies between subtypes,more than three hundred-fold
